Measured values published in ChEMBL document CHEMBL1629412, “Cyclic peptide inhibitors of HIV-1 integrase derived from the LEDGF/p75 protein” (Bioorg Med Chem, 2010).
The source made the active and inactive calls. The rule behind the calls is not given here. Numbered stars: 1 amine (or outer) side, 2 acyl side, 3 side chain; on linkers, the order of the positions; unused ones are H or OH. Bridge positions count the residues as written; N and C are the ends. Square brackets hold non-standard residues; d marks the D form. Peptide text beside a SMILES is read from it. X2 = O=C(c1ccccc1-c1c2ccc(=O)cc-2oc2cc(O)ccc12)N(CCC(=O)[*:1])C(=O)[*:2]; X1 = O=C(c1ccccc1-c1c2ccc(=O)cc-2oc2cc(O)ccc12)N(CC(=O)[*:1])C(=O)[*:2]; N(6-aminohexyl)Gly = O=C(CN(CCCCCCN[*:3])[*:1])[*:2]; NGly(3-aminopropyl) = O=C(CN(CCCN[*:3])[*:1])[*:2]; N(2-Aminoethyl)Gly = O=C(CN(CCN[*:3])[*:1])[*:2]; Nlys = NCCCCNCC(=O)O

Columns and labels:
[1] = molecular target: Human immunodeficiency virus type 1 integrase (Human immunodeficiency virus 1) (UniProt Q7ZJM1); assay: Inhibition of HIV-1 Integrase at 1:50 protein/compound molar ratio; conditions: concentration not given here
[2] = molecular target: Human immunodeficiency virus type 1 integrase (Human immunodeficiency virus 1) (UniProt Q7ZJM1); assay: Binding affinity to HIV-1 Integrase by FRET assay
[3] = system: Human immunodeficiency virus 1; assay: Antiviral activity against HIV1 infected in human MAGI cells assessed as Tat-mediated reporter gene expression; type: functional, organism-based
[4] = Chemical stability of the compound in presence of trypsin and chymotrypsin mixture at 1 mM after 150 mins by MALDI-TOF MS; type: physicochemical; conditions: isolated protein, 2.5 h, 1000 µM
[5] = system: Human immunodeficiency virus 1; assay: Antiviral activity against HIV1 infected in human H9 cells assessed as extracellular release of viral protein p24 at 12.5 uM added to the medium every 2 days; type: functional
[6] = system: Human immunodeficiency virus 1; assay: Antiviral activity against HIV1 infected in human H9 cells assessed as extracellular release of viral protein p24 at 12.5 uM added to the medium every 2 days measured after 8 days; type: functional; conditions: Human immunodeficiency virus 1, H9
[7] = Chemical stability of the compound in presence of trypsin and chymotrypsin mixture at 1 mM after 30 mins by MALDI-TOF MS; type: physicochemical; conditions: isolated protein, 0.5 h, 1000 µM
[8] = molecular target: Human immunodeficiency virus type 1 integrase (Human immunodeficiency virus 1) (UniProt Q7ZJM1); assay: Inhibition of HIV-1 Integrase; conditions: concentration not given here
[9] = system: Human immunodeficiency virus 1; assay: Antiviral activity against HIV1 infected in human H9 cells assessed as extracellular release of viral protein p24 at 12.5 uM after 8 days; type: functional, organism-based

Sequence of Human immunodeficiency virus type 1 integrase (Human immunodeficiency virus 1) (Q7ZJM1 as listed by the source): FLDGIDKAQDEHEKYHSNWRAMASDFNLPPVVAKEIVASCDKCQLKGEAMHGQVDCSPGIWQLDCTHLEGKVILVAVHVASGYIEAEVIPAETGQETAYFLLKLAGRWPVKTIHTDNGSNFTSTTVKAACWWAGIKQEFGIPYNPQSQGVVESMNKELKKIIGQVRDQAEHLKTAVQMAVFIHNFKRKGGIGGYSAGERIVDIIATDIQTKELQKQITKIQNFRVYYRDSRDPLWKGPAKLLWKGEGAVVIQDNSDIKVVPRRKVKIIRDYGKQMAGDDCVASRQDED

| Compound | inhibition [1] [%] | Activity [2] [µM] | Activity [3] | also measured |
| --- | --- | --- | --- | --- |
| CC[C@H](C)[C@@H]1NC(=O)[C@H](CCCCN)NC(=O)[C@H](CC(C)C)NC(=O)[C@H](CO)NC(=O)[C@H](CC(N)=O)NC(=O)[C@H](Cc2c[nH]c3ccccc23)NC(=O)CN(C(=O)c2ccccc2-c2c3ccc(=O)cc-3oc3cc(O)ccc23)C(=O)NCCCCCCN(CC(N)=O)C(=O)[C@H](C(C)C)NC(=O)[C@H](CC(=O)O)NC(=O)[C@H](CC(C)C)NC(=O)[C@H](CC(N)=O)NC(=O)[C@H](CC(=O)O)NC1=O (WNSLKIDNLDV[N(6-aminohexyl)Gly]-NH2; linker N-12 via X1) | 48 | 3.3 | inactive | – |
| CC[C@H](C)[C@@H]1NC(=O)[C@H](CCCCN)NC(=O)[C@H](CC(C)C)NC(=O)[C@H](CO)NC(=O)[C@H](CC(N)=O)NC(=O)[C@H](Cc2c[nH]c3ccccc23)NC(=O)CCN(C(=O)c2ccccc2-c2c3ccc(=O)cc-3oc3cc(O)ccc23)C(=O)NCCCCN(CC(N)=O)C(=O)[C@H](C(C)C)NC(=O)[C@H](CC(=O)O)NC(=O)[C@H](CC(C)C)NC(=O)[C@H](CC(N)=O)NC(=O)[C@H](CC(=O)O)NC1=O (WNSLKIDNLDV[Nlys]-NH2; linker N-12 via X2) | 65 | 3.1 | – | – |
| CC[C@H](C)[C@@H]1NC(=O)[C@H](CCCCN)NC(=O)[C@H](CC(C)C)NC(=O)[C@H](CO)NC(=O)[C@H](CC(N)=O)NC(=O)[C@H](Cc2c[nH]c3ccccc23)NC(=O)CN(C(=O)c2ccccc2-c2c3ccc(=O)cc-3oc3cc(O)ccc23)C(=O)NCCCN(CC(N)=O)C(=O)[C@H](C(C)C)NC(=O)[C@H](CC(=O)O)NC(=O)[C@H](CC(C)C)NC(=O)[C@H](CC(N)=O)NC(=O)[C@H](CC(=O)O)NC1=O (WNSLKIDNLDV[NGly(3-aminopropyl)]-NH2; linker N-12 via X1) | 44 | 6.5 | – | – |
| CC[C@H](C)[C@@H]1NC(=O)[C@H](CCCCN)NC(=O)[C@H](CC(C)C)NC(=O)[C@H](CO)NC(=O)[C@H](CC(N)=O)NC(=O)[C@H](Cc2c[nH]c3ccccc23)NC(=O)CN(C(=O)c2ccccc2-c2c3ccc(=O)cc-3oc3cc(O)ccc23)C(=O)NCCN(CC(N)=O)C(=O)[C@H](C(C)C)NC(=O)[C@H](CC(=O)O)NC(=O)[C@H](CC(C)C)NC(=O)[C@H](CC(N)=O)NC(=O)[C@H](CC(=O)O)NC1=O (WNSLKIDNLDV[N(2-Aminoethyl)Gly]-NH2; linker N-12 via X1) | 51 | 5.2 | – | – |
| CC[C@H](C)[C@@H]1NC(=O)[C@H](CCCCN)NC(=O)[C@H](CC(C)C)NC(=O)[C@H](CO)NC(=O)[C@H](CC(N)=O)NC(=O)[C@H](Cc2c[nH]c3ccccc23)NC(=O)CN(C(=O)c2ccccc2-c2c3ccc(=O)cc-3oc3cc(O)ccc23)C(=O)NCCCCN(CC(N)=O)C(=O)[C@H](C(C)C)NC(=O)[C@H](CC(=O)O)NC(=O)[C@H](CC(C)C)NC(=O)[C@H](CC(N)=O)NC(=O)[C@H](CC(=O)O)NC1=O (WNSLKIDNLDV[Nlys]-NH2; linker N-12 via X1) | 90 | 5 | Dose-dependent effect | Stability [4]: Unstable; inhibition at 12.5 µM ([5]; Human immunodeficiency virus 1, H9, 48 h): 80%; inhibition at 12.5 µM [6]: > 90%; Stability [7]: Stable |
| H-WNSLKIDNLDV-OH | 83 | 5.1 | Dose-dependent effect | inhibition [8]: 85%; Activity [5]: Active; Activity [9]: inactive; Stability [7]: Unstable |
| CC[C@H](C)[C@@H]1NC(=O)[C@H](CCCCN)NC(=O)[C@H](CC(C)C)NC(=O)[C@H](CO)NC(=O)[C@H](CC(N)=O)NC(=O)[C@H](Cc2c[nH]c3ccccc23)NC(=O)CCN(C(=O)c2ccccc2-c2c3ccc(=O)cc-3oc3cc(O)ccc23)C(=O)NCCN(CC(N)=O)C(=O)[C@H](C(C)C)NC(=O)[C@H](CC(=O)O)NC(=O)[C@H](CC(C)C)NC(=O)[C@H](CC(N)=O)NC(=O)[C@H](CC(=O)O)NC1=O (WNSLKIDNLDV[N(2-Aminoethyl)Gly]-NH2; linker N-12 via X2) | 54 | 6.3 | – | – |
| CC[C@H](C)[C@@H]1NC(=O)[C@H](CCCCN)NC(=O)[C@H](CC(C)C)NC(=O)[C@H](CO)NC(=O)[C@H](CC(N)=O)NC(=O)[C@H](Cc2c[nH]c3ccccc23)NC(=O)CCN(C(=O)c2ccccc2-c2c3ccc(=O)cc-3oc3cc(O)ccc23)C(=O)NCCCN(CC(N)=O)C(=O)[C@H](C(C)C)NC(=O)[C@H](CC(=O)O)NC(=O)[C@H](CC(C)C)NC(=O)[C@H](CC(N)=O)NC(=O)[C@H](CC(=O)O)NC1=O (WNSLKIDNLDV[NGly(3-aminopropyl)]-NH2; linker N-12 via X2) | 19 | 4 | – | – |
| CC[C@H](C)[C@@H]1NC(=O)[C@H](CCCCN)NC(=O)[C@H](CC(C)C)NC(=O)[C@H](CO)NC(=O)[C@H](CC(N)=O)NC(=O)[C@H](Cc2c[nH]c3ccccc23)NC(=O)CCN(C(=O)c2ccccc2-c2c3ccc(=O)cc-3oc3cc(O)ccc23)C(=O)NCCCCCCN(CC(N)=O)C(=O)[C@H](C(C)C)NC(=O)[C@H](CC(=O)O)NC(=O)[C@H](CC(C)C)NC(=O)[C@H](CC(N)=O)NC(=O)[C@H](CC(=O)O)NC1=O (WNSLKIDNLDV[N(6-aminohexyl)Gly]-NH2; linker N-12 via X2) | 48 | 3.8 | – | – |
